Read-outs that look alike come from different tables or passages of the source. Blank lines part the entries; values can stand above or below the molecule they belong to.
Legend:
[1] = MTS staining for PBMC viability to measure cytotoxicity; type: cell-based, human; conditions: human, PHA-stimulated pooled PBMCs, HIV-infected, infected PBMCs, six days, MTS, unit printed only with high-test concentration, read-out: TC50 (50% cytotoxicity)
Description: (§1) Pooling (mixing) of mononuclear cells from more than one donor was used to minimize the variability observed between individual donors, which results from quantitative and qualitative differences in HIV infection and overall response to the PHA and IL-2 of primary lymphocyte populations. Each plate contains virus/cell control wells (cells plus virus) and experimental wells (drug plus cells plus virus). In this in vitro assay, PBMC viability remains high throughout the duration of the incubation period. Therefore, infected wells are used in the assessment of both antiviral activity and cytotoxicity. […] The PBMC cultures were maintained for six days following infection at 37° C., 5% CO2. After this period, cell-free supernatant samples were collected for analysis of reverse transcriptase activity. Following removal of supernatant samples, compound cytotoxicity was measured by addition of MTS to the plates for determination of cell viability. Wells were also examined microscopically and any abnormalities were noted. At assay termination, the assay plates were stained with the soluble tetrazolium-based dye MTS (CellTiter®96 Reagent, Promega) to determine cell viability and quantify compound toxicity. MTS is metabolized by the mitochondrial enzymes of metabolically active cells to yield a soluble formazan product, allowing the rapid quantitative analysis of cell viability and compound cytotoxicity. […] At termination of the assay, 10-25 μL of MTS reagent was added per well (10% final concentration based on volume) and the microtiter plates were then incubated for 4-6 hrs at 37° C., 5% CO2 to assess cell viability. Adhesive plate sealers were used in place of the lids, the sealed plate was inverted several times to mix the soluble formazan product and the plate was read spectrophotometrically at 490/650 nm with a Molecular Devices Vmax or SpectraMax Plus plate reader. […]

HIV-1JR-CSF [2] = test: Anti HIV efficacy evaluation in fresh human PBMCs (reverse transcriptase activity); conditions: for IC50: Human immunodeficiency virus 1, PBMC, in Homo sapiens, 144 h, read-out: IC50 (50% inhibition of virus replication)
HIV-1JR-CSF [3] = system: HIV-1JR-CSF
[4] = system: primary human hepatocytes infected with HBV; test: Viability (CellTiter-Glo) of primary human hepatocytes infected in vitro with HBV; type: cell-based; conditions: forty eight hours after treatment, in the absence of TNF-α
Source text: Primary human hepatocytes were infected in vitro with HBV using an adenoviral delivery system as previously described (Chin R, Earnest-Silveira L, Koeberlein B, Franz S, Zentgraf H, Bowden S, Bock C-T, Torresi J. Modulation of MAPK pathways and cell cycle byreplicating hepatitis B virus: factors contributing tohepatocarcinogenesis. J Hepatology 2007;47:325-37). The delivery system included a green fluorescent protein marker so that the proportion of infected cells could be quantified. Using this system approximately 100% of hepatocytes were infected with HBV. Cells were rested for 2 days after infection and then they were treated with the indicated agents. Forty eight hours after treatment cell viability was assessed using CellTiter-Glo® (Promega, Madison Wis. USA) according to the manufacturer's protocol. This experiment was performed in triplicate and repeated 2 times using 2 independent donors. The highest CellTiter-Glo result from one of the triplicate untreated samples was used to set the 100% viability mark.

[5] = system: HIV-infected (GFP+) cultured CD4+ lymphocytes; test: FACS of living (Active-Caspase 3 negative) HIV NL4.3 infected CD4+ lymphocytes; type: cell-based, human; conditions: single dose of 10 uM, within 24 hours
human PBMCs = test: MTS staining for PBMC viability to measure cytotoxicity; type: cell-based; conditions: fixed concentration (10 ng/mL) of TNF-α versus birinapant alone; within expected biological variability
Description: as §1

[6] = system: Mycobacterium tuberculosis (strain H37Rv); test: Mycobacterium tuberculosis infected mice, lung bacterial burden; type: in vivo
HBV = test: Treatment of HBV infected mice (serum HBV DNA); type: in vivo, hepatitis B virus
[7] = Toxicity of treatment in HBV-infected mice; type: in vivo
Description: C57BL/6 mice were infected with HBV and 6 days after infection were treated with weekly doses of birinapnat (30 mg/kg administered intraperitoneally) or vehicle control (DMSO) for a total of 3 weeks (3 doses).

IC50 (HIV-1JR-CSF [2]): 0.00171 µM
Molecule: Cc1cn([C@H]2C[C@H](N=[N+]=[N-])[C@@H](CO)O2)c(=O)[nH]c1=O [AZT, Zidovudine]
CC50 at 6 days ([1]; high-test concentration 1,000 nM): > 1 µM | Antiviral Index (TC50/IC50) (HIV-1JR-CSF [3]): >584

Molecule: CC[C@H](NC(=O)[C@H](C)NC)C(=O)N1C[C@@H](O)C[C@H]1Cc1c(-c2[nH]c3cc(F)ccc3c2C[C@@H]2C[C@H](O)CN2C(=O)[C@H](CC)NC(=O)[C@H](C)NC)[nH]c2cc(F)ccc12 [Birinapant, birinapant]
death of primary human hepatocytes infected with HBV [4]: not effective | HIV infected cells that die [5]: 55% | CC50 at 6 days ([1]; high-test concentration 10 μM): 6.47 µM | increase in cytotoxicity in the presence of TNF-α (human PBMCs): 1.6 fold | reduction in bacterial burden versus DMSO control ([6]; mice, intraperitoneal, 30 μg/g weekly x3, started 4 weeks after infection, p=0.012): 0.33 Log10 CFU/lung | macroscopic appearance of the lungs ([6]; upon dissection after three weekly doses): pink, uniform and healthier in appearance | IC50 (HIV-1JR-CSF [2]): 0.25 µM | increase in antiviral potency in the presence of TNF-α (HIV-1JR-CSF [2]; fixed concentration (10 ng/mL) of TNF-α versus birinapant alone): 6 fold | reduction of HBV viral load compared to vehicle control (HBV; C57BL/6 mice, 30 mg/kg intraperitoneally weekly, after three doses): 2 logs | HBV DNA in serum (HBV; C57BL/6 mice, 39 days after the first dose, all treated mice): no detectable HBV DNA | efficacy against HBV when TNF-α is antagonized (HBV; HBV infected mice injected intraperitoneally with TNF-α antagonizing antibodies): abrogates the efficacy | toxicity related to treatment [7]: No toxicity

Molecule: TNF-α
reduction in HIV replication (HIV-1JR-CSF [2]; TNF-α alone, 10 ng/mL): 35%

Molecule: TRAIL: TNF-related apoptosis inducing ligand
death of primary human hepatocytes infected with HBV [4]: virtually no efficacy

From US20160143995A1, “Method of Treating Intracellular Infection” (priority 2013, published 2016)
